# Measurements: patent EP4595961A1, “SELEXIPAG FOR USE IN THE TREATMENT AND/OR PREVENTION OF ATHEROSCLEROSIS” (SORBONNE UNIVERSITE, priority 2024, dated 2025)
# Read-outs that look alike come from different tables or passages of the source.
# Legend:
# [1] = test system: ABCG1; assay: ABCG1 gene expression by real-time RT-PCR in aortic smooth muscle cells; format: cell-based, human; conditions: normalized with HPRT, n=1 or 2
# Protocol: (§1) The cells, grown to confluence according to the supplier's instructions (Lonza), were serum-depleted, pre-treated for 1h with increasing concentrations of ACT-333679 (i.e. MRE-269), and incubated in the presence of 10ng/mL PDGF-BB for 24h for Figures 4 and 5, and 6h for Figure 6. The treated cells were then incubated during 4 hours with 10µg/mL of fluorescently labelled DiI-oxLDL (Figures 4 and 5) and their ability to internalise the oxLDL was analysed by fluorescence microscopy (Figure 4) and FACS (Figure 5). FACS allows precise quantification of the number of fluorescent cells (i.e. those that have incorporated fluorescent oxLDL) and the intensity of the incorporated fluorescence per cell (i.e. the quantity of incorporated oxLDL/cell). Nuclei were stained with 4'-6'diamidino-2-phenylindol (DAPI) for analysis by fluorescence microscopy (Figure 4) or cells were directly analysed by flow cytometry (Figure 5). A detailed description of the protocol and apparatus used is given in the art.
# (§2) Regarding Figure 4, representative images of the analysis of 5 fields examined in two experiments (n=2). […]
# (§3) The expression of genes encoding transporters involved in cholesterol efflux (ABCA1: ATP-binding cassette A1 and ABCG1: ATP-binding cassette subfamily G member 1) was measured by real-time RT-PCR. […]
# [2] = test system: ABCA1; assay: ABCA1 gene expression by real-time RT-PCR in aortic smooth muscle cells; format: cell-based, human; conditions: normalized with HPRT, n=1 or 2
# Protocol: as §1, §2, §3
# [3] = test system: human aortic smooth muscle cells; assay: Internalisation of DiI-oxLDL by aortic smooth muscle cells (fluorescence microscopy and FACS); format: cell-based; conditions: 1h pre-treatment, DiI-oxLDL 10 µg/mL 4 hours, read-out: concentration from which incorporation of oxLDL is inhibited
# [4] = test system: vascular smooth muscle cells-derived foam cells; assay: Radioisotopic cholesterol efflux assay ([3H]-cholesterol-loaded VSMCs); format: cell-based, human
# Excerpt: Primary cultures of aortic smooth muscle cells (AoSMC) obtained from a human diabetic and obese donor ([…]) were purchased from Lonza (D-AoSMC CloneticsTM). Cells were cultivated on 12-well plates at 50 000 cells/well in a growth medium composed of the Smooth Muscle Basal Medium (SmBM, Lonza) supplemented with 0.2% hEGF, 0.1% insulin, 0.2% hFGF-B, 5% Fetal Bovine Serum (FBS) and 0.1% gentamicin/amphotericin-B (SingleQuots, Lonza, concentrations not specified) according to Lonza's instructions. The foam phenotype was induced when cells reached a subconfluent density. During all the experiments, cells were maintained within an atmosphere enriched with 5% CO2 at 37°C and were used at passages ranging from 6 to 9. […]
# Cholesterol efflux assay was performed as previously described by using [3H]-cholesterol-loaded VSMCs. […] Fractional cholesterol efflux, expressed as a percentage, was calculated as the amount of the radioactivity recovered in the cleared medium divided by the total radioactivity (radioactivity in the medium + radioactivity in the cells). Radioactivity in the cells was obtained after the lipid extraction in a mixture of hexane isopropanol (3:2 v/v) and was determined by liquid scintillation counting on a Wallac Trilux 1450 Microbeta scintillation counter (PerkinElmer, MA, USA). […]
# [5] = pre-treated 1h, then PDGF-BB 10 ng/mL 6h
Structure (SMILES),"basal expression of gene encoding ABCG1 ([1]; basal, no PDGF-BB)","basal expression of gene encoding ABCA1 ([2]; basal, no PDGF-BB)","minimal effective concentration ([3]; Homo sapiens, basal incorporation) [µM]",minimal effective concentration ([3]; incorporation stimulated by PDGF-BB 10 ng/mL 24h) [µM],"Basal cholesterol efflux ([4]; MRE-269 100 nM alone, no rHDL, basal efflux about 2.6 %)","cholesterol efflux ([4]; MRE-269 100 nM together with rHDL 20 µg/mL, 24h, n=6) [%]","Expression of PDGF-BB-inhibited ABCG1 gene [1, 5]","Expression of PDGF-BB-inhibited ABCA1 gene [2, 5]"
"CC(C)N(CCCCOCC(=O)NS(C)(=O)=O)c1cnc(-c2ccccc2)c(-c2ccccc2)n1 [Selexipag, 2-{4-[(5,6-diphenylpyrazin-2-yl)(isopropyl)amino]butoxy}-N-(methylsulfonyl)acetamide]",increased,increased,–,–,–,–,–,–
CC(C)N(CCCCOCC(=O)O)c1cnc(-c2ccccc2)c(-c2ccccc2)n1 [MRE-269],–,–,≥ 0.005,≥ 0.005,not modified,20.21,partially restored,partially restored
